PMC6352943, “Novel pyrazolo[3,4-d]pyrimidines: design, synthesis, anticancer activity, dual EGFR/ErbB2 receptor tyrosine kinases inhibitory activity, effects on cell cycle profile and caspase-3-mediated apoptosis” (Journal of Enzyme Inhibition and Medicinal Chemistry, 2019)
Several values for one entry are separate records, joined by “and”; a condition that tells them apart may be missing. Equal entries are not always repeated.

Tests used:
786-0 = assay: NCI 60 cell line single dose screen (SRB); assay type: cell-based; conditions: Homo sapiens; 786-0 (renal cancer), single dose 10^−5 M, 48 h; read-out: Growth inhibition percentage
Procedure, shortened: (§1)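 Cells were plated and grown 24 h at 37 °C, 5% CO2 before compound addition from DMSO stock, then exposed 48 h. Adherent cells were fixed with cold TCA (final 10%) and suspension cells with 16% TCA. SRB-stained protein was read at 515 nm and percent growth was calculated against time-zero and untreated plates.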

HCT-116 = assay: NCI 60 cell line single dose screen (SRB); assay type: cell-based; conditions: Homo sapiens; HCT-116 (colon cancer), single dose 10^−5 M, 48 h; read-out: Growth inhibition percentage
Procedure, shortened: as §1

NCI-H522 = assay: NCI 60 cell line single dose screen (SRB); assay type: cell-based; conditions: Homo sapiens; NCI-H522 (non-small cell lung cancer), single dose 10^−5 M, 48 h; read-out: Growth inhibition percentage
Procedure, shortened: as §1

SK-OV-3 = assay: NCI 60 cell line single dose screen (SRB); assay type: cell-based; conditions: Homo sapiens; SK-OV-3 (ovarian cancer), single dose 10^−5 M, 48 h; read-out: Growth inhibition percentage
Procedure, shortened: as §1

SR = assay: NCI 60 cell line single dose screen (SRB); assay type: cell-based; conditions: Homo sapiens; SR (leukemia), single dose 10^−5 M, 48 h; read-out: Growth inhibition percentage
Procedure, shortened: as §1

HT29 = assay: NCI 60 cell line single dose screen (SRB); assay type: cell-based; conditions: Homo sapiens, HT-29; HT29 (colon cancer), single dose 10^−5 M, 48 h; read-out: Growth inhibition percentage
Procedure, shortened: as §1

HS 578T = assay: NCI 60 cell line single dose screen (SRB); assay type: cell-based; conditions: Homo sapiens; HS 578T (breast cancer), single dose 10^−5 M, 48 h; read-out: Growth inhibition percentage
Procedure, shortened: as §1

SNB-19 = assay: NCI 60 cell line single dose screen (SRB); assay type: cell-based; conditions: Homo sapiens; SNB-19 (CNS cancer), single dose 10^−5 M, 48 h; read-out: Growth inhibition percentage
Procedure, shortened: as §1

NCI/ADR-RES = assay: NCI 60 cell line single dose screen (SRB); assay type: cell-based; conditions: Homo sapiens; NCI/ADR-RES (ovarian cancer), single dose 10^−5 M, 48 h; read-out: Growth inhibition percentage
Procedure, shortened: as §1

T-47D = assay: NCI 60 cell line single dose screen (SRB); assay type: cell-based; conditions: Homo sapiens, T47D; T-47D (breast cancer), single dose 10^−5 M, 48 h; read-out: Growth inhibition percentage
Procedure, shortened: as §1

UACC-257 = assay: NCI 60 cell line single dose screen (SRB); assay type: cell-based; conditions: Homo sapiens; UACC-257 (melanoma), single dose 10^−5 M, 48 h; read-out: Growth inhibition percentage
Procedure, shortened: as §1

MALME-3M = assay: NCI 60 cell line single dose screen (SRB); assay type: cell-based; conditions: Homo sapiens; MALME-3M (melanoma), single dose 10^−5 M, 48 h; read-out: Growth inhibition percentage
Procedure, shortened: as §1

TK-10 = assay: NCI 60 cell line single dose screen (SRB); assay type: cell-based; conditions: Homo sapiens; TK-10 (renal cancer), single dose 10^−5 M, 48 h; read-out: Growth inhibition percentage
Procedure, shortened: as §1

HL-60(TB) = assay: NCI 60 cell line single dose screen (SRB); assay type: cell-based; conditions: Homo sapiens; HL-60(TB) (leukemia), single dose 10^−5 M, 48 h; read-out: Growth inhibition percentage
Procedure, shortened: as §1

HOP-62 = assay: NCI 60 cell line single dose screen (SRB); assay type: cell-based; conditions: Homo sapiens; HOP-62 (non-small cell lung cancer), single dose 10^−5 M, 48 h; read-out: Growth inhibition percentage
Procedure, shortened: as §1

NCI-H226 = assay: NCI 60 cell line single dose screen (SRB); assay type: cell-based; conditions: Homo sapiens; NCI-H226 (non-small cell lung cancer), single dose 10^−5 M, 48 h; read-out: Growth inhibition percentage
Procedure, shortened: as §1

ErbB2 = biological target: T1, ErbB2 (Homo sapiens, UniProt P04626); assay: ErbB2 kinase inhibition (HTScan HER2/ErbB2 Kinase Assay Kit); assay type: biochemical; conditions: mean ± SD of three experiments; read-out: IC50 for inhibitory activity against ErbB2 enzyme
T1 construct: purchased
T1 sequence (P04626 23-1255): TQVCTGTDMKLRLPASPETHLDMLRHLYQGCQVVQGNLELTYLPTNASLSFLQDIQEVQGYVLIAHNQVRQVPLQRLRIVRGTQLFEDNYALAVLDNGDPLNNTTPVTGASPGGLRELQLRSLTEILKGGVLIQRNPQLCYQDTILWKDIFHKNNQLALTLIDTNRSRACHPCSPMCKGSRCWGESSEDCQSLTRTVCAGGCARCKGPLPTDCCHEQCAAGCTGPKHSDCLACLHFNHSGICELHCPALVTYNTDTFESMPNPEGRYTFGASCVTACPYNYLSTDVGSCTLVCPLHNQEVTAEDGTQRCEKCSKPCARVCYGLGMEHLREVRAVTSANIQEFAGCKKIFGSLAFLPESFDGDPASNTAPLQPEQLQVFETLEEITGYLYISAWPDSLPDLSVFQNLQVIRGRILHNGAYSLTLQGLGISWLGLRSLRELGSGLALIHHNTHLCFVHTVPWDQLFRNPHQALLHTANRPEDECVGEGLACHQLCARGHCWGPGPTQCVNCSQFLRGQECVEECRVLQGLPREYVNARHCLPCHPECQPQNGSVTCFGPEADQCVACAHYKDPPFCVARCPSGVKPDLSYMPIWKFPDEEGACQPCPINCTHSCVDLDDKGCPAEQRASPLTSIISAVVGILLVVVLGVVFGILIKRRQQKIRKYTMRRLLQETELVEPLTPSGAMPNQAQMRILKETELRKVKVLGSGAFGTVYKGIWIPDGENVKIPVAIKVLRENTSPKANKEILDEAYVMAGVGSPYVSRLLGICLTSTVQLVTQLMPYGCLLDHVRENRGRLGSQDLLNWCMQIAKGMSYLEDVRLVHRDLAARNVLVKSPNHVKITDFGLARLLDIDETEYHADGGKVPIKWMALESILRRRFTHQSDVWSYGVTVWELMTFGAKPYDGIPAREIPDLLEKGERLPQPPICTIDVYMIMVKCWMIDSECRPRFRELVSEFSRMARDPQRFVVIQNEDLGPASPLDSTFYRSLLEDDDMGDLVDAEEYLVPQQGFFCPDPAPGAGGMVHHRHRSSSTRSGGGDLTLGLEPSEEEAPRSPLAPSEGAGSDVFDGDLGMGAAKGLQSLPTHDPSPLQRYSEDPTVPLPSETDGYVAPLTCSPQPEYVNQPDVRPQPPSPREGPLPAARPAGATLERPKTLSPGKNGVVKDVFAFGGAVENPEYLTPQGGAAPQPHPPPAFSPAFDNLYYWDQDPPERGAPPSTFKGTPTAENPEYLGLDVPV
Protocol: In brief, add 10 μL of 10 mM ATP to 1.25 ml of 6 μM substrate peptide. Dilute the mixture with dH20 to 2.5 ml. Transfer enzyme from −80 °C to ice. Allow enzyme to thaw on ice. Micro-centrifuge briefly at 4 °C. Return immediately to ice. […] Transfer 1.2 ml of DTT/Kinase buffer to each enzyme. […] Add 25 μL of ATP/substrate cocktail to 25 μL/well pre-incubated reaction cocktail/compound. Incubate reaction plate at room temperature for 30 min. Add 50 μL/well stop buffer to stop the reaction. Transfer 25 μL of each reaction and 75 μL dH2O/well to a 96-well streptavidin coated, plate and incubate at room temperature for 60 min. Wash three times with 200 μL/well phosphate-buffered saline (PBS). […] Add 100 μL/well primary antibody. Incubate at room temperature for 60 min and wash three times. Prepare appropriate dilution of horseradish peroxidase (HRP) labelled secondary antibody in PBS with 1% BSA. Add 100 μL/well secondary antibody solution. Incubate at room temperature for 30 min and wash five times. Add 100 μL/well 3,3′,5,5′-tetramethylbenzidine (TMB) substrate. Incubate at room temperature for 15 min. Add 100 μL/well of stop solution. Mix well and read the absorbance at 450 nm with a microtitre plate reader.

| SMILES | inhibition at 10 µM (786-0) [%] | inhibition at 10 µM (HCT-116) [%] | inhibition at 10 µM (NCI-H522) [%] | inhibition at 10 µM (SK-OV-3) [%] | inhibition at 10 µM (SR) [%] | inhibition at 10 µM (HT29) [%] | inhibition at 10 µM (HS 578T) [%] | inhibition at 10 µM (SNB-19) [%] | inhibition at 10 µM (NCI/ADR-RES) [%] | inhibition at 10 µM (T-47D) [%] | inhibition at 10 µM (UACC-257) [%] | inhibition at 10 µM (MALME-3M) [%] | inhibition at 10 µM (TK-10) [%] | inhibition at 10 µM (HL-60(TB)) [%] | inhibition at 10 µM (HOP-62) [%] | inhibition at 10 µM (NCI-H226) [%] | melting point [°C] | IC50 (ErbB2) |
| --- | --- | --- | --- | --- | --- | --- | --- | --- | --- | --- | --- | --- | --- | --- | --- | --- | --- | --- |
| COc1cc(C=NNc2ncnc3c2c(C)nn3-c2ccc(F)cc2)cc(OC)c1OC [Compound 10c, 1–(4-Fluorophenyl)-3-methyl-4–(2-(3,4,5-trimethoxybenzylidene)-hydrazinyl)-1H-pyrazolo[3,4-d]pyrimidine] | 1.85 | 3.15 | 7.26 | 7.06 | 13.7 | 8.83 | 13.9 | -4.87 | -2.25 | 16.8 | 0.35 | 12.6 | -36.3 | -4.11 | 0.38 | 5.82 | 222 to 224 | – |
| Cc1nn(-c2ccc(F)cc2)c2ncnc(Nc3ccc(F)c(Cl)c3)c12 [Compound 7d, N-(3-Chloro-4-fluorophenyl)-1–(4-fluorophenyl)-3-methyl-1H-pyrazolo[3,4-d] pyrimidin-4-amine] | 21.3 | 19.2 | 10.4 | 13.9 | 25.4 | 14.4 | 21.5 | 20.4 | 5.13 | 27.4 | -1.41 | 1.56 | -6.68 | 15 | 38.7 | 62.9 | – | 250 nM and 254 nM |
